Results from ChEMBL document CHEMBL5715954, “Silencing c-Myc translation as a therapeutic strategy through targeting PI3Kδ and CK1ε in hematological malignancies” (Blood, 2017).

How the values were obtained:
Design in all cases: scale not given: the % may be the effect or the level left
[1] = target: G protein-coupled receptor kinase 4 (Homo sapiens) (UniProt P32298); test: Inhibition of human GRK4 assessed as enzyme activity at 1 uM using casein as substrate preincubated for 20 mins followed by [gamma-33P]-ATP addition and measured after 120 mins by radiometric Hot-SpotSM Kinase assay relative to control
[2] = target: Serine/threonine-protein kinase Chk2 (Homo sapiens) (UniProt O96017); test: Inhibition of human CHK2 assessed as enzyme activity at 1 uM using KKKVSRSGLYRSPSMPENLNRPR as substrate preincubated for 20 mins followed by [gamma-33P]-ATP addition and measured after 120 mins by radiometric Hot-SpotSM Kinase assay relative to control
[3] = target: Leucine-rich repeat serine/threonine-protein kinase 2 (Homo sapiens) (UniProt Q5S007); test: Inhibition of human LRRK2 assessed as enzyme activity at 1 uM using RLGRDKYKTLRQIRQ as substrate preincubated for 20 mins followed by [gamma-33P]-ATP addition and measured after 120 mins by radiometric Hot-SpotSM Kinase assay relative to control
[4] = target: T1, Ephrin type-A receptor 8 (Homo sapiens) (UniProt P29322); test: Inhibition of human EPHA8 assessed as enzyme activity at 1 uM using poly[Glu:Tyr] (4:1) as substrate preincubated for 20 mins followed by [gamma-33P]-ATP addition and measured after 120 mins by radiometric Hot-SpotSM Kinase assay relative to control
T1 sequence (whole entry): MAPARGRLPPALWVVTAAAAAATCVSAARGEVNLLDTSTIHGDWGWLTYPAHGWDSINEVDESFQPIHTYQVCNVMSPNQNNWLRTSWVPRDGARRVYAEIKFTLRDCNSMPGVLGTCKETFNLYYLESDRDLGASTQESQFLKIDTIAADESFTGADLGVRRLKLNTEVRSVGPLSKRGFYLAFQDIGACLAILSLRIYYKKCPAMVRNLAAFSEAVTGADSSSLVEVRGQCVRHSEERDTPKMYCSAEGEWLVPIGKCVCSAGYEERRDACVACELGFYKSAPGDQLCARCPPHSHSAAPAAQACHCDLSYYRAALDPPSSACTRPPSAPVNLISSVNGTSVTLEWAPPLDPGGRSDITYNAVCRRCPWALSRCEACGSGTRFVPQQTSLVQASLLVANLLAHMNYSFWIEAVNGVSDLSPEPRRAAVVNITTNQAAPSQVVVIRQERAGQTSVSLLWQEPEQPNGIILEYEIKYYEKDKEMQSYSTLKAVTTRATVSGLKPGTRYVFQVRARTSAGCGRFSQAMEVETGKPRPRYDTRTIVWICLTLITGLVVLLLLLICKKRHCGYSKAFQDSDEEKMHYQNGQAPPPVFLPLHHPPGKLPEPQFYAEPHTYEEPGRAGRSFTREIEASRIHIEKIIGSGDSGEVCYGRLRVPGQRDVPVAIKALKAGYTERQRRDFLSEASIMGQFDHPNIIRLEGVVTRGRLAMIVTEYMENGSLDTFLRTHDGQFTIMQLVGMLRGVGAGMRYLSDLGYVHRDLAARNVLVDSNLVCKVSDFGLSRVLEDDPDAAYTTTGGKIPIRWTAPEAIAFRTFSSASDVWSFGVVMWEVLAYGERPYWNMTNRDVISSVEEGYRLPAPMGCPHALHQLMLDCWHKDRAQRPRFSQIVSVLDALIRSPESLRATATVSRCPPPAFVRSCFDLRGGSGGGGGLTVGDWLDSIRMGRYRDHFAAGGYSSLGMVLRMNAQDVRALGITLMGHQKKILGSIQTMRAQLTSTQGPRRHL

[5] = target: T2, Serine/threonine-protein kinase tousled-like 1 (Homo sapiens) (UniProt Q9UKI8); test: Inhibition of human TLK1 assessed as enzyme activity at 1 uM using histone H3 as substrate preincubated for 20 mins followed by [gamma-33P]-ATP addition and measured after 120 mins by radiometric Hot-SpotSM Kinase assay relative to control
T2 sequence (whole entry): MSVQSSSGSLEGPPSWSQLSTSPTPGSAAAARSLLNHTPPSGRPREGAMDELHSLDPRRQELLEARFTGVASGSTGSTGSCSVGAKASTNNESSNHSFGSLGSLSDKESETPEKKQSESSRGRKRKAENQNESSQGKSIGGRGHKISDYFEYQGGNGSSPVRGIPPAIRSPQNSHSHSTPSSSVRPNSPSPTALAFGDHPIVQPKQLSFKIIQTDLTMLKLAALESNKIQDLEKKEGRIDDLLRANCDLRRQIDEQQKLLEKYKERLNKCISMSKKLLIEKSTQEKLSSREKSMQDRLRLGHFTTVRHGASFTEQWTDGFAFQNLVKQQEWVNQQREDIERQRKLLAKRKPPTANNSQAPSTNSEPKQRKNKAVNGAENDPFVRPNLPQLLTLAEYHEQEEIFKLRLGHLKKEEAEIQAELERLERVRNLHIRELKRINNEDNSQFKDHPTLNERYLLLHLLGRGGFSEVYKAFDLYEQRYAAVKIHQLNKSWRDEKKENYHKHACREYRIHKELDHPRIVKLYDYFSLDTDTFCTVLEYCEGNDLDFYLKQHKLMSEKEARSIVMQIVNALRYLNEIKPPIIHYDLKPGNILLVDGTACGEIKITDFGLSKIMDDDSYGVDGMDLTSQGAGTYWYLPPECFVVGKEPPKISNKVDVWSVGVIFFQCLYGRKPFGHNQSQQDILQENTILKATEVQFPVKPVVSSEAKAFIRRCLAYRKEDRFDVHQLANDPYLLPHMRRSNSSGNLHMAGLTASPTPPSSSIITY

[6] = target: MAP/microtubule affinity-regulating kinase 3 (Homo sapiens) (UniProt P27448); test: Inhibition of human MARK3 assessed as enzyme activity at 1 uM using KKKVSRSGLYRSPSMPENLNRPR as substrate preincubated for 20 mins followed by [gamma-33P]-ATP addition and measured after 120 mins by radiometric Hot-SpotSM Kinase assay relative to control
[7] = target: Homeodomain-interacting protein kinase 1 (Homo sapiens) (UniProt Q86Z02); test: Inhibition of human HIPK1 assessed as enzyme activity at 1 uM using myelin basic protein as substrate preincubated for 20 mins followed by [gamma-33P]-ATP addition and measured after 120 mins by radiometric Hot-SpotSM Kinase assay relative to control
[8] = target: Ephrin type-A receptor 7 (Homo sapiens) (UniProt Q15375); test: Inhibition of human EPHA7 assessed as enzyme activity at 1 uM using poly[Glu:Tyr] (4:1) as substrate preincubated for 20 mins followed by [gamma-33P]-ATP addition and measured after 120 mins by radiometric Hot-SpotSM Kinase assay relative to control
Ephrin type-A receptor 7 (Homo sapiens), sequence (Q15375 28-998 limits assumed): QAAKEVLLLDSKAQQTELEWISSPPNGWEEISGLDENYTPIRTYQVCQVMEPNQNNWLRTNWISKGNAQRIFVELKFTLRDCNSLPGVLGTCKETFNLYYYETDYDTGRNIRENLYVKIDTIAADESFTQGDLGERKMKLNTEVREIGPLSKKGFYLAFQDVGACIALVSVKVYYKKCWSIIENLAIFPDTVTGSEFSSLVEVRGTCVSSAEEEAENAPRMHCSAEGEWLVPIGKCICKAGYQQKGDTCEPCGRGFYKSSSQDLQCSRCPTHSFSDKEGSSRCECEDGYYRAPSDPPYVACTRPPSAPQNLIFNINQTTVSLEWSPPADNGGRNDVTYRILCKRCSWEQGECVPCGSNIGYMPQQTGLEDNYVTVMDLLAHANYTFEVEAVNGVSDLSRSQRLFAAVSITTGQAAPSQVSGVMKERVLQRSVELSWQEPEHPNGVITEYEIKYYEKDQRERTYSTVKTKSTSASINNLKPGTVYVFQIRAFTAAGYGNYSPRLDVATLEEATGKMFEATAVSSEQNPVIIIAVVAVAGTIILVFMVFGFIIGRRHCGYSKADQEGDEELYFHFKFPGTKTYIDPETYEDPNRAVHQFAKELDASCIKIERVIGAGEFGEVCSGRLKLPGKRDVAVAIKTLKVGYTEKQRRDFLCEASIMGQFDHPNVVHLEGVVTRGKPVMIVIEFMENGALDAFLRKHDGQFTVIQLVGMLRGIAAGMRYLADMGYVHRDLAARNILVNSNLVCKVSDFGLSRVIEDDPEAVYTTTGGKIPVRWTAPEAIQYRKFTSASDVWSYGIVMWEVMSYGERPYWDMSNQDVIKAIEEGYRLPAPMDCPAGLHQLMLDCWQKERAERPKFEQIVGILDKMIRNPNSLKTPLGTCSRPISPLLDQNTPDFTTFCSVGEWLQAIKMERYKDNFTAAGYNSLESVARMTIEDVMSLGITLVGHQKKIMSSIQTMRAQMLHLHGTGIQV

Serine/threonine-protein kinase Chk2 (Homo sapiens), sequence (O96017 whole entry): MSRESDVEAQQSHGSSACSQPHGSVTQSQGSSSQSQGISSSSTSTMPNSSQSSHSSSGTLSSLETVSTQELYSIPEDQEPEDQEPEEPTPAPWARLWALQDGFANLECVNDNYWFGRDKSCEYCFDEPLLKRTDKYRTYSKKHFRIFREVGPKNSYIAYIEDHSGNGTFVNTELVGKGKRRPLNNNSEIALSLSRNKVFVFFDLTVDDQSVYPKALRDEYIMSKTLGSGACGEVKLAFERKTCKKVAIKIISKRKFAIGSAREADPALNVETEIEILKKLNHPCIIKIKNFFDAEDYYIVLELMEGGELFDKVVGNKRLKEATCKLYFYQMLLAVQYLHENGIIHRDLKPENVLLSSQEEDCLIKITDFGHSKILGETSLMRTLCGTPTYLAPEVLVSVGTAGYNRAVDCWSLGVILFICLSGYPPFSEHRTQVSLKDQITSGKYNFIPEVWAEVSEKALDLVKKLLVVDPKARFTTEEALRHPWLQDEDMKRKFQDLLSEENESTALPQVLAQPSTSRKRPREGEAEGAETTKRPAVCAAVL
Homeodomain-interacting protein kinase 1 (Homo sapiens), sequence (Q86Z02 whole entry, looked up): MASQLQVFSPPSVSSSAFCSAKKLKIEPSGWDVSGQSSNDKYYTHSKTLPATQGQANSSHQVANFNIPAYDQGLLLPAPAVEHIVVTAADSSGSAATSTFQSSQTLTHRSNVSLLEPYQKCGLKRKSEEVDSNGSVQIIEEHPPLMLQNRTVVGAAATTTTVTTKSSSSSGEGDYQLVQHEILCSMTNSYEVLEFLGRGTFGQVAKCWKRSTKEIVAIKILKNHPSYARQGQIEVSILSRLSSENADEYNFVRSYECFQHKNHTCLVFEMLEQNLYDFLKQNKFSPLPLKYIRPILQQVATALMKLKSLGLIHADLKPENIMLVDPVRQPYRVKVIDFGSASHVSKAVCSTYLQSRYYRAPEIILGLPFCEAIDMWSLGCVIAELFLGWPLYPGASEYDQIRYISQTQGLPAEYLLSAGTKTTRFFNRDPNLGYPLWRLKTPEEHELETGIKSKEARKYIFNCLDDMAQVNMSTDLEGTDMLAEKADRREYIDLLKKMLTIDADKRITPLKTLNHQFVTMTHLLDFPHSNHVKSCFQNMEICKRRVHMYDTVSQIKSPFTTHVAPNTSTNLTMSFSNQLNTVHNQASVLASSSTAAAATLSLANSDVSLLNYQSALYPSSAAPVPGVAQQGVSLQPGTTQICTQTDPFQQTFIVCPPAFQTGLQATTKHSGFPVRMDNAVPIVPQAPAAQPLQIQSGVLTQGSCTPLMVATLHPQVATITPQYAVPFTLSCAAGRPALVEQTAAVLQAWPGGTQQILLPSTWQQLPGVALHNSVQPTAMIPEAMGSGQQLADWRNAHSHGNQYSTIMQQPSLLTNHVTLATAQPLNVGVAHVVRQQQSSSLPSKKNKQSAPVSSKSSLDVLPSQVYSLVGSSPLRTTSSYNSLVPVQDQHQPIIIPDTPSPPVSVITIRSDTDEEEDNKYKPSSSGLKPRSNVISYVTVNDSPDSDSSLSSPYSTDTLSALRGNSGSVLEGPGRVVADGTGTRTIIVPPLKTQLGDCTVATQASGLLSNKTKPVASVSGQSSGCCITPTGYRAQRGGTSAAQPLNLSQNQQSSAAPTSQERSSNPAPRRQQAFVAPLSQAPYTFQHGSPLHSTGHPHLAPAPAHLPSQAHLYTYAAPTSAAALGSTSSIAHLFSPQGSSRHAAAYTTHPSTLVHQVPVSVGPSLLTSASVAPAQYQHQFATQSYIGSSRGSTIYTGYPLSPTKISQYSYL
MAP/microtubule affinity-regulating kinase 3 (Homo sapiens), sequence (P27448 whole entry, looked up): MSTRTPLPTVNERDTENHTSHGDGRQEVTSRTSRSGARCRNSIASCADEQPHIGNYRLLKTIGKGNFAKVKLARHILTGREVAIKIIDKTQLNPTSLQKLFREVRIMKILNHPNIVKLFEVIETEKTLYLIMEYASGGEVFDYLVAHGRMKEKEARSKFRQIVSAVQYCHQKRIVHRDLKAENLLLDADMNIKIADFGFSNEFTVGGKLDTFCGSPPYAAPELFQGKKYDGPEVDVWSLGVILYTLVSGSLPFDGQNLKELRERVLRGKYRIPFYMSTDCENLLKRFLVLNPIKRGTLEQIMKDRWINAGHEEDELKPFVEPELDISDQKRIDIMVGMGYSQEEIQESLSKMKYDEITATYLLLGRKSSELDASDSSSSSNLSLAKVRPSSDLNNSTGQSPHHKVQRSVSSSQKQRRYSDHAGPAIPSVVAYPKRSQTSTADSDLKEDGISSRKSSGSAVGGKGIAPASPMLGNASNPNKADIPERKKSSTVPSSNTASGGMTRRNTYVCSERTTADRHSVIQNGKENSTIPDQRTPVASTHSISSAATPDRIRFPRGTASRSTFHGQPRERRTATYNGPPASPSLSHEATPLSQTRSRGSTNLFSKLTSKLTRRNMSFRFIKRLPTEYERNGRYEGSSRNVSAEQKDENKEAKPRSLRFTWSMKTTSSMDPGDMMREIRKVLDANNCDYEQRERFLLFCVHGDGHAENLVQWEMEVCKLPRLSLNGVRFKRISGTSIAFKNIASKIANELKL
G protein-coupled receptor kinase 4 (Homo sapiens), sequence (P32298 whole entry, looked up): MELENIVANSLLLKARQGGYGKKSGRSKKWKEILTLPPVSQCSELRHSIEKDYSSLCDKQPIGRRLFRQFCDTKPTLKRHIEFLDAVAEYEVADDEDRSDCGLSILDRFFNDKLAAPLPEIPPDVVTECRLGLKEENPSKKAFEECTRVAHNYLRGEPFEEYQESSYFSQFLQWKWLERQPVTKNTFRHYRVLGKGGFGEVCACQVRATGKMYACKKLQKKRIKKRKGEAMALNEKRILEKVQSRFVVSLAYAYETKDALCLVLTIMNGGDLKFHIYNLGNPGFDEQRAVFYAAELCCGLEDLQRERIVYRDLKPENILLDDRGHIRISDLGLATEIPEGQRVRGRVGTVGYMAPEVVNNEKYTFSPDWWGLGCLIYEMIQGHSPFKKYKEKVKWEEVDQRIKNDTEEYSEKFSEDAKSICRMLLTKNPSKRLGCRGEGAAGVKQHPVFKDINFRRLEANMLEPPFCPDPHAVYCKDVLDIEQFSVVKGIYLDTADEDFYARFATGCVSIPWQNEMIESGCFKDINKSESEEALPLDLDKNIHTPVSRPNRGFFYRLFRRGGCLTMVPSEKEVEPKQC

CC[C@H](Nc1ncnc2[nH]cnc12)c1nc2cccc(F)c2c(=O)n1-c1ccccc1
Activity [1]: 93.2% | Activity [2]: 93.7% | Activity [3]: 99.7% | Activity [4]: 97.6% | Activity [5]: 100% | Activity [6]: 130% | Activity [7]: 102% | Activity [8]: 89.7%

C[C@H](Nc1ncnc2nc[nH]c12)c1cc2cccc(Cl)c2c(=O)n1-c1ccccc1
Activity [1]: 92.2% | Activity [2]: 91.3% | Activity [3]: 111% | Activity [4]: 99.1% | Activity [5]: 105% | Activity [6]: 137% | Activity [7]: 103% | Activity [8]: 93.4%

CC(C)Oc1ccc(-c2nn([C@@H](C)c3oc4ccc(F)cc4c(=O)c3-c3cccc(F)c3)c3ncnc(N)c23)cc1F [UMBRALISIB]
Activity [1]: 95.1% | Activity [2]: 93.2% | Activity [3]: 107% | Activity [4]: 95.8% | Activity [5]: 102% | Activity [6]: 100% | Activity [7]: 101% | Activity [8]: 88.7%
